Data reported in PubChem BioAssay (NCI).
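Assay format: 96-well plates, 48-hour exposure. Abbreviation: GI50, concentration required for 50% inhibition of growth. TGI is the concentration that stops growth completely.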

Key:
Assay in all cases: inhibition of tumour cell growth, NCI panel, 48 h
HL-60(TB) leukemia = system: HL-60(TB) leukemia
NCI-H522 lung = system: NCI-H522 lung
MOLT-4 leukemia = system: MOLT-4 leukemia
MDA-MB-231 breast = system: MDA-MB-231 breast
786-0 renal = system: 786-0 renal
HOP-92 NSCLC = system: HOP-92 NSCLC
SK-OV-3 ovarian = system: SK-OV-3 ovarian
MCF7 breast = system: MCF7 breast
SW-620 colon = system: SW-620 colon
UACC-257 melanoma = system: UACC-257 melanoma
SR leukemia = system: SR leukemia
DU-145 prostate = system: DU-145 prostate
U251 CNS = system: U251 CNS
OVCAR-4 ovarian = system: OVCAR-4 ovarian
NCI-H23 lung = system: NCI-H23 lung
PC-3 prostate = system: PC-3 prostate
COLO 205 colon = system: COLO 205 colon
HS 578T breast = system: HS 578T breast
MDA-MB-435 = system: MDA-MB-435
M14 melanoma = system: M14 melanoma
ACHN renal = system: ACHN renal
SK-MEL-2 melanoma = system: SK-MEL-2 melanoma
SF-295 CNS = system: SF-295 CNS
UO-31 renal = system: UO-31 renal
NCI/ADR-RES ovarian = system: NCI/ADR-RES ovarian
LOX IMVI melanoma = system: LOX IMVI melanoma
TK-10 renal = system: TK-10 renal
SN12C renal = system: SN12C renal
CCRF-CEM leukemia = system: CCRF-CEM leukemia
MALME-3M melanoma = system: MALME-3M melanoma
RPMI-8226 leukemia = system: RPMI-8226 leukemia
HT29 colon = system: HT29 colon
OVCAR-5 ovarian = system: OVCAR-5 ovarian
RXF 393 renal = system: RXF 393 renal
SF-539 CNS = system: SF-539 CNS
NCI-H460 lung = system: NCI-H460 lung
SNB-75 CNS = system: SNB-75 CNS
HCT-116 colon = system: HCT-116 colon
A498 renal = system: A498 renal
HCC-2998 colon = system: HCC-2998 colon
KM12 colon = system: KM12 colon
CAKI-1 renal = system: CAKI-1 renal
T-47D breast = system: T-47D breast
OVCAR-8 ovarian = system: OVCAR-8 ovarian
BT-549 breast = system: BT-549 breast
HCT-15 colon = system: HCT-15 colon
HOP-62 NSCLC = system: HOP-62 NSCLC
SNB-19 CNS = system: SNB-19 CNS
SF-268 CNS = system: SF-268 CNS
IGROV1 ovarian = system: IGROV1 ovarian
SK-MEL-5 melanoma = system: SK-MEL-5 melanoma
K-562 leukemia = system: K-562 leukemia
UACC-62 melanoma = system: UACC-62 melanoma
EKVX NSCLC = system: EKVX NSCLC
A549 NSCLC = system: A549 NSCLC
SK-MEL-28 melanoma = system: SK-MEL-28 melanoma
NCI-H226 lung = system: NCI-H226 lung

N#Cc1c(NC(=O)c2cccc(C(F)(F)F)c2F)sc2c1CCC(=O)C2
GI50 (HL-60(TB) leukemia): 235 nM | TGI (HL-60(TB) leukemia): 10.9 µM | GI50 (NCI-H522 lung): 194 nM | TGI (NCI-H522 lung): 719 nM | GI50 (MOLT-4 leukemia): 308 nM | TGI (MOLT-4 leukemia): > 37.7 µM | GI50 (MDA-MB-231 breast): 356 nM | TGI (MDA-MB-231 breast): 1350 nM | GI50 (786-0 renal): 444 nM | TGI (786-0 renal): > 47.5 µM | GI50 (HOP-92 NSCLC): 243 nM | TGI (HOP-92 NSCLC): 679 nM | GI50 (SK-OV-3 ovarian): 1960 nM | TGI (SK-OV-3 ovarian): 6.37 µM | GI50 (MCF7 breast): 276 nM | TGI (MCF7 breast): > 23 µM | GI50 (SW-620 colon): 225 nM | TGI (SW-620 colon): 1460 nM | GI50 (UACC-257 melanoma): 624 nM | TGI (UACC-257 melanoma): 3.18 µM | GI50 (SR leukemia): 76.1 nM | TGI (SR leukemia): > 100 µM | GI50 (DU-145 prostate): 1270 nM | TGI (DU-145 prostate): > 100 µM | GI50 (U251 CNS): 356 nM | TGI (U251 CNS): 2240 nM | GI50 (OVCAR-4 ovarian): 393 nM | TGI (OVCAR-4 ovarian): 1730 nM | GI50 (NCI-H23 lung): 337 nM | TGI (NCI-H23 lung): 2070 nM | GI50 (PC-3 prostate): 114 nM | TGI (PC-3 prostate): 1480 nM | GI50 (COLO 205 colon): 210 nM | TGI (COLO 205 colon): 437 nM | GI50 (HS 578T breast): 357 nM | TGI (HS 578T breast): 2320 nM | GI50 (MDA-MB-435): 336 nM | TGI (MDA-MB-435): 1400 nM | GI50 (M14 melanoma): 378 nM | TGI (M14 melanoma): 2100 nM | GI50 (ACHN renal): 296 nM | TGI (ACHN renal): 1010 nM | GI50 (SK-MEL-2 melanoma): 2150 nM | TGI (SK-MEL-2 melanoma): 5.33 µM | GI50 (SF-295 CNS): 515 nM | TGI (SF-295 CNS): 2420 nM | GI50 (UO-31 renal): 220 nM | TGI (UO-31 renal): 730 nM | GI50 (NCI/ADR-RES ovarian): 345 nM | TGI (NCI/ADR-RES ovarian): 1820 nM | GI50 (LOX IMVI melanoma): 311 nM | TGI (LOX IMVI melanoma): 1180 nM | GI50 (TK-10 renal): 330 nM | GI50 (SN12C renal): 326 nM | TGI (SN12C renal): 2220 nM | GI50 (CCRF-CEM leukemia): 190 nM | TGI (CCRF-CEM leukemia): > 100 µM | GI50 (MALME-3M melanoma): 266 nM | TGI (MALME-3M melanoma): 694 nM | GI50 (RPMI-8226 leukemia): 66.4 nM | GI50 (HT29 colon): 226 nM | TGI (HT29 colon): 1310 nM | GI50 (OVCAR-5 ovarian): 392 nM | TGI (OVCAR-5 ovarian): 1780 nM | GI50 (RXF 393 renal): 221 nM | TGI (RXF 393 renal): 714 nM | GI50 (SF-539 CNS): 244 nM | TGI (SF-539 CNS): 800 nM | GI50 (NCI-H460 lung): 549 nM | TGI (NCI-H460 lung): > 38.9 µM | GI50 (SNB-75 CNS): 459 nM | TGI (SNB-75 CNS): 3.55 µM | GI50 (HCT-116 colon): 124 nM | TGI (HCT-116 colon): 1260 nM | GI50 (A498 renal): 2190 nM | TGI (A498 renal): 5.93 µM | GI50 (HCC-2998 colon): 588 nM | TGI (HCC-2998 colon): 2090 nM | GI50 (KM12 colon): 464 nM | TGI (KM12 colon): 1980 nM | GI50 (CAKI-1 renal): 221 nM | TGI (CAKI-1 renal): 866 nM | GI50 (T-47D breast): 151 nM | TGI (T-47D breast): 1650 nM | GI50 (OVCAR-8 ovarian): 356 nM | TGI (OVCAR-8 ovarian): > 100 µM | GI50 (BT-549 breast): 308 nM | TGI (BT-549 breast): 1430 nM | GI50 (HCT-15 colon): 246 nM | TGI (HCT-15 colon): 1140 nM | GI50 (HOP-62 NSCLC): 782 nM | GI50 (SNB-19 CNS): 410 nM | TGI (SNB-19 CNS): 15.6 µM | GI50 (SF-268 CNS): 408 nM | TGI (SF-268 CNS): > 100 µM | GI50 (IGROV1 ovarian): 490 nM | TGI (IGROV1 ovarian): 2200 nM | GI50 (SK-MEL-5 melanoma): 372 nM | TGI (SK-MEL-5 melanoma): 1320 nM | GI50 (K-562 leukemia): 112 nM | TGI (K-562 leukemia): > 100 µM | GI50 (UACC-62 melanoma): 317 nM | TGI (UACC-62 melanoma): 1330 nM | GI50 (EKVX NSCLC): 563 nM | TGI (EKVX NSCLC): 4.4 µM | GI50 (A549 NSCLC): 1880 nM | TGI (A549 NSCLC): > 100 µM | GI50 (SK-MEL-28 melanoma): 475 nM | TGI (SK-MEL-28 melanoma): 1790 nM | GI50 (NCI-H226 lung): 487 nM | TGI (NCI-H226 lung): 2570 nM
